“And” between values parts separate entries of the source, which are not always exact repeats. Equal values may be shown once.
assay: Agonist activity at recombinant human CB1 receptor expressed in CHO-K1 cells assessed as increase in cAMP accumulation after 20 mins by HTRF assay

SMILES | EC50
CCCCCCC(C)(C)c1ccc2c(c1)OC(C)(C)[C@@H]1CCC(CO)=C[C@@H]21 | 1.2 nM
COc1cc(OC(=O)NCCCCN2CCN(c3cccc(Cl)c3Cl)CC2)ccc1-c1ccccc1 | 220 nM and 219 nM
CCCCCc1cc(O)c2c(c1)OC(C)(C)[C@@H]1CCC(C)=C[C@@H]21 [(10R,10aR)-6,6,9-Trimethyl-3-pentyl-6a,7,8,10a-tetrahydro-6H-benzo[c]chromen-1-ol] | 10 nM
CCCC(C)(C)c1ccc2c(c1)OC(C)(C)[C@@H]1CCC(C)=C[C@@H]21 | 667 nM
COc1ccccc1N1CCN(CCCCNC(=O)Oc2ccc3c(c2)[nH]c2ccccc23)CC1 | 2300 nM and 2340 nM

From BindingDB's records for doi:10.1021/acs.jmedchem.6b01578 (University of Bologna, 2017)
